The values below come from the supplement of paper PMC11368000.

Molecules are shown by their SMILES. Where only a bound is given, the exact number is not on record here.

The test system of the first experiment is 1392 (donor line of iPSC-derived cardiomyocytes). Nature of the experiment: POD (EC05) for increase in Ca2+ transient decay-to-rise ratio (QT prolongation) vs vehicle; higher = less potent (higher point of departure). Conditions: exposure time: 90 min. A digest of the protocol: (§1)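 For each of 16 donors, iPSC-derived human cardiomyocytes were cultured 14 days in gelatin-coated 384-well plates and given a fluorescent Ca2+ dye for 2 h. Exposure lasted 90 min at 37 °C at 0.1, 1, 10 and 100 µM final, with 0.5% DMSO, and a FLIPR Tetra captured Ca2+ flux at 8 frames/s over 100 s both before and afterwards. Points of departure per donor were estimated by hierarchical Bayesian Hill fits to vehicle-normalised beat frequency, decay-to-rise ratio or peak frequency, using thresholds of 5% change, or 95% loss for peak frequency.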
As to `OCC(F)(F)C(F)(F)C(F)(F)F` [Heptafluorobutanol], the POD vs vehicle was over 100 µM.

As to `OCC(F)(F)C(F)(F)C(F)(F)CO` [Hexafluoroamylene_glycol], the POD vs vehicle is over 100 µM.

Regarding `COC(=O)C(F)(F)C(F)(F)OC(F)(C(F)(F)F)C(F)(F)OC(F)=C(F)F` (stereo not drawn) [Methyl_perfluoro(3-(1-ethenyloxypropan-2-yloxy)propanoate)], the POD vs vehicle was over 100 µM.

As to `NC(=O)C(F)(F)C(F)(F)C(F)(F)C(F)(F)F` [Nonafluoropentanamide], the POD vs vehicle is over 100 µM.

For `NC(=O)C(F)(F)C(F)(F)C(F)(F)C(F)(F)C(N)=O` [Octafluoroadipamide], the POD vs vehicle is over 100 µM.

With `O=C(O)C(F)(F)C(F)(F)C(F)(F)C(F)(F)C(=O)O` [Octafluoroadipic_acid], the POD vs vehicle is over 100 µM.

For the molecule `O=C(O)C(F)(F)C(F)(F)C(F)(F)OC(F)(F)F` [Perfluoro(4-methoxybutanoic)_acid], the POD vs vehicle is over 100 µM.

For `O=C(O)C(F)(F)OC(F)(F)C(F)(F)OC(F)(F)C(F)(F)OC(F)(F)C(F)(F)C(F)(F)C(F)(F)F` [Perfluoro-3,6,9-trioxatridecanoic_acid], the POD vs vehicle was over 100 µM.

For `O=C(O)C(F)(F)OC(F)(F)C(F)(F)OC(F)(F)F` [Perfluoro-3,6-dioxaheptanoic_acid], the POD vs vehicle is over 100 µM.

`O=C(O)C(F)(F)OC(F)(F)C(F)(F)OC(F)(F)C(=O)O` [Perfluoro-3,6-dioxaoctane-1,8-dioic_acid]: the POD vs vehicle is over 100 µM.

The test system of the next experiment is 11235 (donor line of iPSC-derived cardiomyocytes). The description is as above. To be noted: exposure time: 90 min. A digest of the protocol: as §1
For `OCCC(F)(F)C(F)(F)C(F)(F)C(F)(F)C(F)(F)C(F)(F)F` [6:2 Fluorotelomer alcohol], the POD vs vehicle is over 100 µM.

Take `O=S(=O)(O)CCC(F)(F)C(F)(F)C(F)(F)C(F)(F)C(F)(F)C(F)(F)F` [6:2 Fluorotelomer sulfonic acid]: the POD vs vehicle is over 100 µM.

Take `OCCC(F)(F)C(F)(F)C(F)(F)C(F)(F)C(F)(F)C(F)(F)C(F)(F)C(F)(F)F` [8:2 Fluorotelomer alcohol]: the POD vs vehicle was over 100 µM.

As for `O=S(=O)(O)CCC(F)(F)C(F)(F)C(F)(F)C(F)(F)C(F)(F)C(F)(F)C(F)(F)C(F)(F)F` [8:2 Fluorotelomer sulfonic acid], the POD vs vehicle was over 100 µM.

As to `O=C(O)C(F)(F)C(F)(F)C(F)(F)C(F)(F)C(F)(F)C(F)(F)C(F)(F)C(F)(F)Cl` [9-Chloro-perfluorononanoic_acid], the POD vs vehicle was over 100 µM.

Turning to `O=P(O)(O)CCC(F)(F)C(F)(F)C(F)(F)C(F)(F)C(F)(F)C(F)(F)C(F)(F)C(F)(F)F` [((Perfluorooctyl)ethyl)phosphonic_acid], the POD vs vehicle is over 100 µM.

Consider `O=C([O-])C(F)(F)C(F)(F)C(F)(F)C(F)(F)C(F)(F)C(F)(F)C(F)(F)F.[NH4+]` [Ammonium_perfluorooctanoate], for which the POD vs vehicle is over 100 µM.

`OCC(F)(F)C(F)(F)C(F)(F)C(F)(F)C(F)(F)C(F)F` [Dodecafluoroheptanol]: the POD vs vehicle was over 100 µM.

For the molecule `OCC(F)(F)OC(F)(F)C(F)(F)OC(F)(F)C(F)(F)OC(F)(F)F` [Fluorinated_triethylene_glycol_monomethyl_ether], the POD vs vehicle was over 100 µM.

For the molecule `OCC(F)(F)C(F)(F)C(F)(F)F` [Heptafluorobutanol], the POD vs vehicle is over 100 µM.

Turning to `OCC(F)(F)C(F)(F)C(F)(F)CO` [Hexafluoroamylene_glycol], the POD vs vehicle is over 100 µM.

For the molecule `COC(=O)C(F)(F)C(F)(F)OC(F)(C(F)(F)F)C(F)(F)OC(F)=C(F)F` (stereo not drawn) [Methyl_perfluoro(3-(1-ethenyloxypropan-2-yloxy)propanoate)], the POD vs vehicle was over 100 µM.

For `NC(=O)C(F)(F)C(F)(F)C(F)(F)C(F)(F)F` [Nonafluoropentanamide], the POD vs vehicle is over 100 µM.

As for `NC(=O)C(F)(F)C(F)(F)C(F)(F)C(F)(F)C(N)=O` [Octafluoroadipamide], the POD vs vehicle is over 100 µM.

Regarding `O=C(O)C(F)(F)C(F)(F)C(F)(F)C(F)(F)C(=O)O` [Octafluoroadipic_acid], the POD vs vehicle was over 100 µM.

Turning to `O=C(O)C(F)(F)C(F)(F)C(F)(F)OC(F)(F)F` [Perfluoro(4-methoxybutanoic)_acid], the POD vs vehicle is over 100 µM.

For `O=C(O)C(F)(F)OC(F)(F)C(F)(F)OC(F)(F)C(F)(F)OC(F)(F)C(F)(F)C(F)(F)C(F)(F)F` [Perfluoro-3,6,9-trioxatridecanoic_acid], the POD vs vehicle was over 100 µM.

`O=C(O)C(F)(F)OC(F)(F)C(F)(F)OC(F)(F)F` [Perfluoro-3,6-dioxaheptanoic_acid]: the POD vs vehicle was over 100 µM.

As for `O=C(O)C(F)(F)OC(F)(F)C(F)(F)OC(F)(F)C(=O)O` [Perfluoro-3,6-dioxaoctane-1,8-dioic_acid], the POD vs vehicle was over 100 µM.

For the next experiment, the system named is 20084 (donor line of iPSC-derived cardiomyocytes). Described as above. Conditions: exposure time: 90 min. The method in brief: as §1
Consider `OCCC(F)(F)C(F)(F)C(F)(F)C(F)(F)C(F)(F)C(F)(F)F` [6:2 Fluorotelomer alcohol], for which the POD vs vehicle is over 100 µM.

On to `O=S(=O)(O)CCC(F)(F)C(F)(F)C(F)(F)C(F)(F)C(F)(F)C(F)(F)F` [6:2 Fluorotelomer sulfonic acid], for which the POD vs vehicle is over 100 µM.

As to `OCCC(F)(F)C(F)(F)C(F)(F)C(F)(F)C(F)(F)C(F)(F)C(F)(F)C(F)(F)F` [8:2 Fluorotelomer alcohol], the POD vs vehicle was over 100 µM.

Turning to `O=S(=O)(O)CCC(F)(F)C(F)(F)C(F)(F)C(F)(F)C(F)(F)C(F)(F)C(F)(F)C(F)(F)F` [8:2 Fluorotelomer sulfonic acid], the POD vs vehicle was determined as 21.9 µM.

For `O=C(O)C(F)(F)C(F)(F)C(F)(F)C(F)(F)C(F)(F)C(F)(F)C(F)(F)C(F)(F)Cl` [9-Chloro-perfluorononanoic_acid], the POD vs vehicle is over 100 µM.

`O=P(O)(O)CCC(F)(F)C(F)(F)C(F)(F)C(F)(F)C(F)(F)C(F)(F)C(F)(F)C(F)(F)F` [((Perfluorooctyl)ethyl)phosphonic_acid]: the POD vs vehicle is over 100 µM.

`O=C([O-])C(F)(F)C(F)(F)C(F)(F)C(F)(F)C(F)(F)C(F)(F)C(F)(F)F.[NH4+]` [Ammonium_perfluorooctanoate]: the POD vs vehicle is over 100 µM.

As to `OCC(F)(F)C(F)(F)C(F)(F)C(F)(F)C(F)(F)C(F)F` [Dodecafluoroheptanol], the POD vs vehicle is over 100 µM.

On to `OCC(F)(F)OC(F)(F)C(F)(F)OC(F)(F)C(F)(F)OC(F)(F)F` [Fluorinated_triethylene_glycol_monomethyl_ether], for which the POD vs vehicle was over 100 µM.

Turning to `OCC(F)(F)C(F)(F)C(F)(F)F` [Heptafluorobutanol], the POD vs vehicle is over 100 µM.

Regarding `OCC(F)(F)C(F)(F)C(F)(F)CO` [Hexafluoroamylene_glycol], the POD vs vehicle is over 100 µM.

In the case of `COC(=O)C(F)(F)C(F)(F)OC(F)(C(F)(F)F)C(F)(F)OC(F)=C(F)F` (stereo not drawn) [Methyl_perfluoro(3-(1-ethenyloxypropan-2-yloxy)propanoate)], the POD vs vehicle was determined as 37.5 µM.

`NC(=O)C(F)(F)C(F)(F)C(F)(F)C(F)(F)F` [Nonafluoropentanamide]: the POD vs vehicle is over 100 µM.

`NC(=O)C(F)(F)C(F)(F)C(F)(F)C(F)(F)C(N)=O` [Octafluoroadipamide]: the POD vs vehicle was over 100 µM.

For `O=C(O)C(F)(F)C(F)(F)C(F)(F)C(F)(F)C(=O)O` [Octafluoroadipic_acid], the POD vs vehicle is over 100 µM.

In the case of `O=C(O)C(F)(F)C(F)(F)C(F)(F)OC(F)(F)F` [Perfluoro(4-methoxybutanoic)_acid], the POD vs vehicle is over 100 µM.

On to `O=C(O)C(F)(F)OC(F)(F)C(F)(F)OC(F)(F)C(F)(F)OC(F)(F)C(F)(F)C(F)(F)C(F)(F)F` [Perfluoro-3,6,9-trioxatridecanoic_acid], for which the POD vs vehicle was over 100 µM.

Consider `O=C(O)C(F)(F)OC(F)(F)C(F)(F)OC(F)(F)F` [Perfluoro-3,6-dioxaheptanoic_acid], for which the POD vs vehicle is over 100 µM.

Consider `O=C(O)C(F)(F)OC(F)(F)C(F)(F)OC(F)(F)C(=O)O` [Perfluoro-3,6-dioxaoctane-1,8-dioic_acid], for which the POD vs vehicle is over 100 µM.
